# Results from US20250177566A1, “USE OF CHEMICAL EPIGENETIC MODIFIERS TO MODULATE GENE EXPRESSION” (The University of North Carolina at Chapel Hill, priority 2022, published 2025).
# Columns and labels:
# MYOD1 = MYOD1 mRNA activation in HEK293T (dCas9, MS2-FKBP*x2), qRT-PCR; assay type: cell-based, human; settings: FIG. 7E; for fold change, MYOD1 mRNA (MYOD1 gRNA vs NT gRNA): 24 hrs
# Procedure: HCT116 cells were stably infected with dCas9 and MS2-FKBP*x2 via lentivirus. NT gRNA was transfected and the change of CXCR4 mRNA expression were quantified with RNA extraction and qRT-PCR, normalized to GAPDH. After 24 hrs of SLF*-CEMa exposure, the cells were separated into three groups: 1) continuous SLF*-CEMa treatment; 2) washout with media; and 3) washout with 20 μM AP1867 added. RNA extraction was performed at 12, 24, 48, and 72 hrs time points. […] HCT116 cells were stably expressing dCas9 and MS2-FKBP*x2 constructs and transfected with CXCR4 gRNA or NT gRNA. APC CXCR4 antibody was used in flow cytometry at referred time points. […] HEK293T cells were lentivirally infected with dCas9 and MS2-FKBP*x2 constructs and transfected with MYOD1 gRNA or NT gRNA. RNA extraction and qRT-PCR were performed after 24 hrs of CEM207 treatment in 5 nM, 25 nM, and 50 nM concentrations along with no chemical treatment as the control group. MYOD1 mRNA expression level was normalized to GAPDH. […] Stable dCas9 and MS2-FKBP*x2 expressing HEK293T cells were transfected with CXCR4 gRNA and NT gRNA. RNA extraction and qRT-PCR were performed after 24 hrs of 25 nM CEM207 or no chemical treatment. CXCR4 mRNA expression level was normalized to GAPDH. […] Stable dCas9 and MS2-FKBP*x2 expressing HEK293T cells were transfected with IL1RN gRNA and NT gRNA. RNA extraction and qRT-PCR were performed after 24 hrs of 25 nM CEM207 treatment. IL1RN mRNA expression level was normalized to GAPDH. […] Stable dCas9 and MS2-FKBP*x2 expressing HEK293T cells were transfected with ASLC1 gRNA and NT gRNA. RNA extraction and qRT-PCR were performed after 24 hrs of 25 nM CEM207 treatment. IL1RN mRNA expression level was normalized to GAPDH. […] Error bars represent the standard deviation.
# As a gene-specific activation technology, it is important to investigate the universal applicability of SLF*-CEMa and evaluate their ability to activate variable genes in different tissue cells. To do so, HEK293T cells stably expressing dCas9 and MS2-FKBP*x2 constructs via lentiviral infection were established and benchmarked for the gene activation level of MYOD1, CXCR4, and IL1RN after CEM207 treatment for 24 hours. HEK293T cells transfected with MYOD1 gRNA were treated with 5 nM, 25 nM, or 50 nM of CEM207. RNA extraction and qRT-PCR were preformed after 24 hours. […] As a result, another gene was tested in the […] cell line. Stably infected cells were transfected with ASCL1 gRNA and mRNA expression was measured by qRT-PCR.
# RNA extraction and qRT-PCR. All RNA extraction experiments were conducted in 12-well plate format. Culturing medium was removed, and cells were washed with 1×PBS, following with 0.05% trypsin to disassociate. […] The primer sets used in quantifying each gene can be found in Table 4.
# BRD4 = target: T1, BRD4 (Homo sapiens, UniProt O60885+P62942); experiment: BRD4 ChIP-qPCR near the CXCR4 transcription start site, HCT116; assay type: cell-based; settings: FIG. 8, 25 nM, 24 hrs
# T1 construct: achieved via the accumulation of endogenous epigenetic machinery at the designed gRNA targeted gene locus; endogenous in cells; host or cells: HCT116 cells stably expressing dCas9 and MS2-FKBP*x2, transfected with CXCR4 or NT gRNA
# Procedure: FIGS. 8A-8B show alamarBlue cell viability assays. HEK293T or HCT116 cells were plated in 96-well plates 24 hrs before chemical treatment of 0.001, 0.01, 0.1, 1, 10, 50, and 100 μM CEM207 was added. Another group of cells were treated with all concentrations of CEM207 mentioned above along with 200 nM CEM87 in all samples. After 4 days of chemical exposure, cell growth was measured by fluorescence. […] HCT116 cells were stably infected with dCas9 and MS2-FKBP*x2 constructs and transfected with CXCR4 gRNA. After 24 hrs of 25 nM CEM207 treatment, ChIP-qPCR was performed at different base pair distances from the transcription start site of CXCR4 gene. […] Error bars represent the standard deviation.
# Given that SLF*-CEMa facilitates gene activation via recruitment of BET proteins including BRD4, BRD4 enrichment at a specific targeted gene locus was investigated to further validate the mechanism of CEM207. Based on the alamarBlue cell viability assay performed with HEK293T and HCT116 cells, CEM207 can have different toxicity effects on different cell lines after 4 days of exposure. […] The signal change was measured between samples when only CEM207 or gRNA are present and those where both are present. […] To determine outlier significance, a “z-score” distribution was calculated by taking the scaled means of the x- and y-axis values and calculated P values for each point within this distribution. […]
# T1 sequence (P62942 2-108 limits assumed, other chains not shown): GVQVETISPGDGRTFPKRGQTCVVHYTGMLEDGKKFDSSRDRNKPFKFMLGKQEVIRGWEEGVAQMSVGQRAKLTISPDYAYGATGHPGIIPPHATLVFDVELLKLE
smiles,measurement,setting,value
"CC[C@H](C(=O)N1CCCC[C@H]1C(=O)O[C@H](CCc1ccc(OC)c(OC)c1)c1cccc(OCC(=O)NCCOCCOCCNC(=O)C[C@@H]2N=C(c3ccc(Cl)cc3)c3c(sc(C)c3C)-n3c(C)nnc32)c1)c1cc(OC)c(OC)c(OC)c1 [CEM207, (R)-1-(3-((14-((S)-4-(4-Chlorophenyl)-2,3,9-trimethyl-6H-thieno[3,2-f][1,2,4]triazolo[4,3-a][1,4]diazepin-6-yl)-2,13-dioxo-6,9-dioxa-3,12-diazatetradecyl)oxy)phenyl)-3-(3,4-dimethoxyphenyl) propyl(S)-1-((S)-2-(3,4,5-trimethoxyphenyl)butanoyl) piperidine-2-carboxylate]",MYOD1 mRNA expression,"MYOD1; 5 nM, 25 nM, or 50 nM, 24 hours",dose-dependent increase
same,"fold change, MYOD1 mRNA (MYOD1 gRNA vs NT gRNA)",MYOD1; 5 nM,5.4 fold
same,"fold change, MYOD1 mRNA (MYOD1 gRNA vs NT gRNA)",MYOD1; 25 nM,10.8 fold
same,"fold change, MYOD1 mRNA (MYOD1 gRNA vs NT gRNA)",MYOD1; 50 nM,10.9 fold
same,"fold change, BRD4 ChIP-qPCR (CXCR4 gRNA vs NT gRNA)",BRD4; +40 bp from CXCR4 TSS,2.7 fold
same,"fold change, BRD4 ChIP-qPCR (CXCR4 gRNA vs NT gRNA)",BRD4; +300 bp from CXCR4 TSS,1.2 fold
